Patent publication US5608056A, “Substituted 3-pyrrolidinylthio-carbapenems as antimicrobial agents” (Fujisawa Pharmaceutical Co., Ltd., priority 1992, dated 1997)

System: P. aeruginosa IAM1095
Assay: in vitro antimicrobial activity, two-fold agar-plate dilution method (MIC)
Format: cell-based
Conditions: Pseudomonas aeruginosa, heart infusion agar (HI-agar), 10^6 viable cells per ml, 37° C., 20 hours, read-out: minimal inhibitory concentration (MIC)
Experimental: in vitro Antimicrobial Activity was determined by the two-fold agar-plate dilution method as described below.
One loopful of an overnight culture of a test strain in Trypticase-soy broth (10^6 viable cells per ml) was streaked on heart infusion agar (HI-agar) containing graded concentrations of the test compound, and the minimal inhibitory concentration (MIC) was expressed in terms of μg/ml after incubation at 37° C. for 20 hours.

SMILES: C[C@@H](O)[C@H]1C(=O)N2C(C(=O)O)=C(S[C@@H]3CN[C@H](CC[n+]4ccn(C)c4)C3)[C@H](C)[C@H]12 [Example 4-4), (4R,5S,6S)-6-[(1R)-1-hydroxyethyl]-4-methyl-3-[(2R,4S)-2-{2-(3-methyl-1-imidazolio)ethyl}pyrrolidin-4-yl]thio-7-oxo-1-azabicyclo[3.2.0]hept-2-ene-2-carboxylic acid chloride]
- MIC: 0.78 µg/mL
